Values belong to the compound of their own block, whether it stands above or below them.
Columns and labels:
Homo sapiens = species on record: Homo sapiens; assay: Selectivity ratio of IC50 for glucocorticoid receptor (unknown origin) to IC50 for mineralocorticoid receptor (unknown origin)
[1] = target: T1, Mineralocorticoid receptor (Homo sapiens, UniProt P08235); assay: Antagonist activity at mineralocorticoid receptor (unknown origin)
T1 sequence (P08235 whole entry): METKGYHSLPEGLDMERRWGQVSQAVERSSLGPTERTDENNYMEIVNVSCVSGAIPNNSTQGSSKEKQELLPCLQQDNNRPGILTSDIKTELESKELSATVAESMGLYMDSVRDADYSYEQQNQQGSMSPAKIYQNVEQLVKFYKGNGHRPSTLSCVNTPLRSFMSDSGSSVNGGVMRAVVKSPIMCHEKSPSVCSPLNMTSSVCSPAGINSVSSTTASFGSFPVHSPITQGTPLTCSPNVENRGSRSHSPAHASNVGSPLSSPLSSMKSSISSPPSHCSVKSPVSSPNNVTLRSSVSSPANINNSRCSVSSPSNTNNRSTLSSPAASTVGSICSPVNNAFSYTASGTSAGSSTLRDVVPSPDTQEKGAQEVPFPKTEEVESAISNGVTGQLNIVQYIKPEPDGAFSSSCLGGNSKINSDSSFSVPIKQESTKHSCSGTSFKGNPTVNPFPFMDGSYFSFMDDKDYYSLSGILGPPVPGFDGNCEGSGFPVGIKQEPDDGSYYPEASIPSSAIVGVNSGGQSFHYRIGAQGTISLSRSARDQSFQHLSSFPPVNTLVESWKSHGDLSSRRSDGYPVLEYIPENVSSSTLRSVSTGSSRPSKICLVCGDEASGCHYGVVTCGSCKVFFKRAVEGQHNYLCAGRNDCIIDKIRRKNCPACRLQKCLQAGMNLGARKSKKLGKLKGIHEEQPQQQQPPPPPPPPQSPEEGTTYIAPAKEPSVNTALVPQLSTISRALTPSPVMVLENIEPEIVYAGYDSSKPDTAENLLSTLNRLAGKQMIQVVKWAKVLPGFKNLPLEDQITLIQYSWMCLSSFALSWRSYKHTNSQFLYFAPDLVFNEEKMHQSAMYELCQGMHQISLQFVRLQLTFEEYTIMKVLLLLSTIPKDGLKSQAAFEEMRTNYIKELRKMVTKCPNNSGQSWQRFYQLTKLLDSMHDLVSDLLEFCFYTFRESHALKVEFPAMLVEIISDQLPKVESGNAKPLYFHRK

[2] = Half-life in Sprague-Dawley rat at 1 mg/kg, iv or 2 mg/kg, po; format: ADME, organism-based; conditions: in vivo
[3] = Oral bioavailability in Sprague-Dawley rat at 2 mg/kg; format: ADME, organism-based; conditions: in vivo
[4] = Clearance in Wistar Han rat at 1 mg/kg, iv or 2 mg/kg, po; format: ADME, organism-based; conditions: in vivo
[5] = Oral bioavailability in Wistar Han rat at 2 mg/kg; format: ADME, organism-based; conditions: in vivo
[6] = Clearance in Sprague-Dawley rat at 1 mg/kg, iv or 2 mg/kg, po; format: ADME, organism-based; conditions: in vivo
Glucocorticoid receptor = target: T2, Glucocorticoid receptor (Homo sapiens, UniProt P04150); assay: Binding affinity to glucocorticoid receptor (unknown origin) by gel filtration assay
T2 sequence (P04150 whole entry): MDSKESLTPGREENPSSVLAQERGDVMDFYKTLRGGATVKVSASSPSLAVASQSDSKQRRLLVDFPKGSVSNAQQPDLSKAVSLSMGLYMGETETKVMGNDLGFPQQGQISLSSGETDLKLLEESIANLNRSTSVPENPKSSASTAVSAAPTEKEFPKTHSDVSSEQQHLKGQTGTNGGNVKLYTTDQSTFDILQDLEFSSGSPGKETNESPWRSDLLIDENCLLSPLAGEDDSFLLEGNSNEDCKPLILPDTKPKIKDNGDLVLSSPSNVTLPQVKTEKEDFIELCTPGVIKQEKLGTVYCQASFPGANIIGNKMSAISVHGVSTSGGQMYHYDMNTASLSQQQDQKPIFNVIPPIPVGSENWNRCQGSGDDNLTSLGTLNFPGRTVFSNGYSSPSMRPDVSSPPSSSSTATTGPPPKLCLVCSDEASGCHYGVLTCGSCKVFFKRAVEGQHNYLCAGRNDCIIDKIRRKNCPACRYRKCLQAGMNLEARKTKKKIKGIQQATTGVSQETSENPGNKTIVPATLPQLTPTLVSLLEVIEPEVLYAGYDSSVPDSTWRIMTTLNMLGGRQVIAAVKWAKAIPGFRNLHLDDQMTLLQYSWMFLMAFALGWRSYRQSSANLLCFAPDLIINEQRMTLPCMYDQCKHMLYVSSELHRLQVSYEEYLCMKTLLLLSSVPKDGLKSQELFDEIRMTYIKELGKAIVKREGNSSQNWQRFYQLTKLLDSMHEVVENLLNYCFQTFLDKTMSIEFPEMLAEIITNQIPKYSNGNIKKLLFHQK

[7] = Half-life in Wistar Han rat at 1 mg/kg, iv or 2 mg/kg, po; format: ADME, organism-based; conditions: in vivo; for half-life: Wistar Han
[8] = Metabolic stability in human liver microsomes assessed as parent compound remaining measured at 0.5 hrs; format: ADME, Microsome; conditions: read-out: Stability
[9] = Clearance in Sprague-Dawley rat at 2 mg/kg, iv or 10 mg/kg, po; format: ADME, organism-based; conditions: in vivo
[10] = Half-life in Sprague-Dawley rat at 2 mg/kg, iv or 10 mg/kg, po; format: ADME, organism-based; conditions: in vivo
[11] = Oral bioavailability in Sprague-Dawley rat at 10 mg/kg; format: ADME, organism-based; conditions: in vivo
[12] = target: T1, Mineralocorticoid receptor; assay: Binding affinity to mineralocorticoid receptor (unknown origin)
[13] = Clearance in Wistar Han rat at 2 mg/kg, iv or 10 mg/kg, po; format: ADME, organism-based; conditions: in vivo
[14] = Half-life in Wistar Han rat at 2 mg/kg, iv or 10 mg/kg, po; format: ADME, organism-based; conditions: in vivo
[15] = Oral bioavailability in Wistar Han rat at 10 mg/kg; format: ADME, organism-based; conditions: in vivo
[16] = Drug metabolism in human liver microsomes assessed as oxidation of electron-rich indole core at 10 uM preincubated for 1 hr followed by NADPH addition by HRMS/MS fragmentation analysis; format: ADME, Microsome
[17] = Drug metabolism in rat liver microsomes assessed as oxidation of electron-rich indole core at 10 uM preincubated for 1 hr followed by NADPH addition by HRMS/MS fragmentation analysis; format: ADME, Microsome
[18] = Photostability of the compound under UV-irradiation; format: physicochemical

Ratio IC50 (Homo sapiens): 19
SMILES: CC[C@@](c1ccc(C(F)(F)F)cc1)(C(C)O)n1ncc2c(NS(C)(=O)=O)cc(F)cc21 (single isomer, unassigned; diastereomer B) [listing 1 of 2 here]

IC50 [1]: 114 nM
SMILES: CCC(CC)(c1ccc(Cl)cc1)n1ncc2c(NS(C)(=O)=O)cccc21

half-life [2]: 5.7 h
bioavailability [3]: 92%
clearance [4]: 14 mL/min/kg
Ratio IC50 (Homo sapiens): 1000
bioavailability ([5]; Wistar Han): 92%
IC50 [1]: 20 nM
clearance [6]: 14 mL/min/kg
IC50 (Glucocorticoid receptor): 1640 nM
half-life [7]: 5.7 h
remaining at 0.5 h [8]: 52%
SMILES: CC[C@@](c1ccc(C(F)(F)F)cc1)(C(C)O)n1ncc2c(NS(C)(=O)=O)cccc21 (some centres not stated)

Ratio IC50 (Homo sapiens): 640
SMILES: CC[C@@](c1ccc(C(F)(F)F)cc1)(C(C)O)n1ncc2c(NS(C)(=O)=O)cc(F)cc21 (single isomer, unassigned; diastereomer A) [listing 1 of 2 here]

F [5]: 36%
IC50 [1]: 22 nM
IC50 (Glucocorticoid receptor): 10200 nM
t1/2 [7]: 1.8 h
SMILES: CC[C@@](c1ccc(C(F)(F)F)cc1)(C(C)O)n1ncc2c(NS(C)(=O)=O)cc(F)cc21 (single isomer, unassigned; diastereomer A) [listing 2 of 2 here]

clearance [4]: 41 mL/min/kg
half-life [7]: 1.5 h
SMILES: CC[C@](CO)(c1ccc(Cl)cc1)n1ccc2c(NS(C)(=O)=O)cccc21

F [5]: 92%
IC50 [1]: 41 nM
IC50 (Glucocorticoid receptor): 4020 nM
t1/2 [7]: 5.2 h
remaining at 0.5 h [8]: 84%
SMILES: CC[C@@](c1ccc(C(F)(F)F)cc1)(C(C)O)n1ncc2c(NS(C)(=O)=O)cc(F)cc21 (single isomer, unassigned; diastereomer B) [listing 2 of 2 here]

IC50 [1]: 5940 nM
SMILES: CCC(CC)(c1ccc(Cl)cc1)c1nnc2c(NS(C)(=O)=O)cccn12

IC50 [1]: 7690 nM
SMILES: CCC(CC)(c1ccc(Cl)cc1)c1cnc2c(NS(C)(=O)=O)cccn12

clearance [9]: 27 mL/min/kg
Ratio IC50 (Homo sapiens): 29
half-life [10]: 1.9 h
IC50 [1]: 64 nM
IC50 (Glucocorticoid receptor): 870 nM
bioavailability [11]: 59%
SMILES: CC[C@](CO)(c1ccc(Cl)cc1)n1ncc2c(NS(C)(=O)=O)cccc21

Ratio IC50 (Homo sapiens): 3.5
IC50 [12]: 32 nM
clearance [13]: 34 mL/min/kg
half-life [14]: 1.6 h
IC50 [1]: 116 nM
IC50 (Glucocorticoid receptor): 111 nM
bioavailability [15]: 30%
SMILES: CC[C@](CO)(c1ccc(Cl)cc1)n1ccc2c(NS(C)(=O)=O)cc(F)cc21

Drug metabolism [16]: Metabolite_Detected
Drug metabolism [17]: Metabolite_Detected
Stability [18]: Unstable
SMILES: CC[C@](C(=O)NC)(c1ccc(Cl)cc1)n1ccc2c(NS(C)(=O)=O)cccc21

IC50 [1]: 567 nM
IC50 (Glucocorticoid receptor): 202 nM
SMILES: CCC(CO)(c1ccc(Cl)cc1)n1ccc2c(NS(C)(=O)=O)cc(Br)cc21 (racemic)

IC50 [1]: 39 nM
SMILES: CCC(CC)(c1ccc(Cl)cc1)n1ccc2c(NS(C)(=O)=O)cccc21

IC50 [1]: 22000 nM
IC50 (Glucocorticoid receptor): 1050 nM
SMILES: CCC(CO)(c1ccc(Cl)cc1)n1ccc2c(NS(C)(=O)=O)cc(C#N)cc21 (racemic)

From ChEMBL document CHEMBL4340566, “Development of indazole mineralocorticoid receptor antagonists and investigation into their selective late-stage functionalization” (Bioorg Med Chem Lett, 2019)
